Like-named read-outs stand apart in the source and are kept apart here.

Here are results for 3 compounds from patent publication US10300048B2, “Thiazolidinones as cellular anandamide uptake inhibitors and their use in the treatment of psychiatric or neurological disorders and inflammation, in particular neuroinflammation” (UNIVERSITAT BERN, priority 2014, dated 2019).

The test system of experiment [1] is AEA cellular uptake, U937 cells. Briefly: [3H]-AEA cellular uptake inhibition in U937 cells. Format: cell-based. Conditions: Homo sapiens, U-937, U937 cells. On the procedure: [^3H]-AEA Cellular Uptake
Screening for AEA cellular uptake inhibition was performed in a semi-automated procedure: Pipetting and washing steps were performed by a Biomek3000 laboratory workstation. First, required amounts of U937 cells were centrifuged at 100×g for 5 min and resuspended in RPMI (37° C.) to a final concentration of 2×10^6 cells/mL. Then, 250 μL of cell suspension (0.5×10^6 cells per sample) were transferred into AquaSil™ silanized glass vials (Chromacol 1.1-MTV) in 96-well format. After addition of 5 μL vehicle (DMSO) or compounds the cells were incubated at 37° C. for 15 min. As positive controls OMDM-2 and UCM707 were used at 10 μM in each run. The ETI-T compounds were measured at up to 7 concentrations in triplicates from 100 pM-100 μM. After pre-incubation, a mixture of 0.5 nM[ethanolamine-1-^3H]-AEA, (60 Ci/mmol) and 99.5 nM of cold AEA (final 100 nM) was added and samples were incubated at 37° C. for another 15 min. The reaction was stopped by rapid filtration over UniFilter-96 GF/C filters (PerkinElmer) pre-soaked with PBS 0.25% BSA. Cells were washed three times with 100 μL ice-cold PBS buffer containing 1% fatty acid free BSA. After drying, 45 μL MicroScint 20 scintillation cocktail (PerkinElmer, Waltham, Mass., US) was added to the wells and the plate was sealed. Radioactivity was measured by liquid scintillation counting on a PerkinElmer Wallac Trilux MicroBeta 1450 during 2 min. Non-specific binding of [^3H]AEA (100 nM) to the glass vials was never higher than 10%. IC50 values were calculated by GraphPad® by non-linear regression using the built-in log(inhibitor) vs. response-variable slope (four parameters) function.
(§1) Statistical analysis and IC50 values were determined using GraphPad® Prism 5.0 (GraphPad® Software, San Diego, Calif., US). Inhibition curves were obtained by non-linear regression using the built-in log(inhibitor) vs. response-variable slope (four parameters) function. Results were calculated as % of vehicle control of the corresponding fraction (cells, aqueous phase) if not mentioned else. In vivo results are shown in absolute values and were analyzed by a one-way ANOVA following a Tukey's multiple comparison test or student's t-test. If not indicated else the results were compared vs. vehicle (CTRL). *** P<0.001, ** P<0.01, * P<0.05, ns=not significant P>0.05.

The target of a further experiment is FAAH (Homo sapiens (Human), UniProt O00519). Briefly: FAAH activity: hydrolysis of [3H]-AEA in U937 cell homogenates. The experiment is classed as biochemical. Particulars: U937 cell homogenate, read-out: FAAH inhibition IC50. As for the experimental part:
Hydrolysis of [^3H]-AEA by FAAH was determined as previously described in cell homogenates of U937 cells (0.18 mg protein) (Omeir et al., 1999, Biochem Biophys Res Commun, 264, 316-20; Mor et al., 2004, J Med Chem, 47, 4998-5008). Protein amounts of cell homogenates corresponded to 0.5×10^6 cells (U937), to assure best possible comparability of IC50 values as used for the AEA cellular uptake assays. URB597 was used as positive control. Protein quantification was performed using a BCA assay (Thermo Scientific). Enzyme activity was assessed by addition of vehicle or compounds in 10 μL DMSO to 490 μL homogenate in 10 mM Tris HCl, 1 mM EDTA, 0.1% (w/v) BSA fatty acid free, pH=8 and incubation for 15 min at 37° C. After, a mixture of AEA plus [ethanolamine-1-^3H]-AEA (0.5 nM) at final 100 nM was added to the homogenates and incubated for 15 min at 37° C. The reaction was stopped by addition of 1 mL ice-cold CHCl3:MeOH (1:1) followed by vigorous vortexing. Phase separation was achieved by centrifugation at 10′000×g at 4° C. for 10 min. Radioactivity of the separated aqueous phase (upper phase) containing [^3H-ethanolamine] or [^3H-glycerol] was measured by liquid scintillation counting on a Tri-Carb 2100 TR liquid scintillation analyzer after addition of 3.5 mL Ultima Gold scintillation cocktail (PerkinElmer Life Sciences). Results are expressed as hydrolysis of tritium substrate in percent of vehicle treated control. IC50 values were calculated by GraphPad®. Data are reported as means of n=3 independent experiments performed in triplicates.
as §1

For a further experiment, the system named is BALB/c mice. Kind of experiment: In vivo tetrad test in BALB/c mice. Particulars: 5.0 mg/kg i.p., vs. vehicle; for anti-nociceptive effect in the hot plate test / locomotion (RotaRod) / time spent in the immobile state (catalepsy, bar test): 60 min; for body temperature (tetrad test): 1 h post injection. On the procedure:
In vivo Tetrad Test in BALB/c Mice
In mice cannabimimetic substances induce a characteristic profile of behavioral effects (tetrad) which include suppression of locomotion, antinociception, hypothermia and catalepsy (Martin et al., 1991, Pharmacol Biochem Behav, 40, 471-8; Wiley, 2003, Eur J Pharmacol, 471, 185-93; Howlett et al., 2002, Pharmacol Rev, 54, 161-202). Male BALB/c mice (8 weeks old, 20-25 g body weight) were housed under standard environmental conditions (n=5 per cage) at 22-24° C. under a 12 h to 12 h light-dark cycle supplied with food and water ad libitum. ETI-T compounds were dissolved in pure DMSO and administered intraperitoneally (i.p) at doses of 5.0 mg/kg in 20 μL of vehicle 60 min prior to evaluation of behavioural effects. The tetrad test battery was carried out as follows: Rectal temperature was determined using a Physitemp thermometer (Physitemp Instruments Inc., Clifton, N.J. with a thermocoupled probe 1-2 cm into the rectum. The temperature was measured 10 min before compound administration and 1 h post injection. Changes in rectal temperature were expressed as the difference between basal and post injection temperatures. Catalepsy was determined using the bar test where mice were placed on a bar oriented parallel to and approximately 4-5 cm off of the ground. The duration of the time a mouse remained motionless (except respiration) with its front paws on the bar was scored over 40 s. Hypomotility was determined using the RotaRod performance test based on a rotating rod with forced motor activity being applied to the mouse. The maximal duration of this test was about 120 s at a velocity of 4 rpm. Analgesia was determined by the hot plate test. Mice were place on a heated plate (54-56° C.) in a Plexiglas cylinder for a maximum of 2 min. […] All experiments were repeated independently on different days. Animals were handled according to the guidelines on use and care of experimental animals (Mexican Official Norm NOM-062-ZOO-1999 published by SAGARPA in the Diario Oficial del Gobierno Mexicano, 2001), which is in accordance with the Code of Ethics of the Directive 2010/63/EU.
as §1

[2] abbreviates: Table 1, 100 nM AEA, read-out: AEA uptake inhibition IC50.
[3] abbreviates: Table 4, read-out: AEA uptake IC50.

FAAH, sequence (O00519 whole entry): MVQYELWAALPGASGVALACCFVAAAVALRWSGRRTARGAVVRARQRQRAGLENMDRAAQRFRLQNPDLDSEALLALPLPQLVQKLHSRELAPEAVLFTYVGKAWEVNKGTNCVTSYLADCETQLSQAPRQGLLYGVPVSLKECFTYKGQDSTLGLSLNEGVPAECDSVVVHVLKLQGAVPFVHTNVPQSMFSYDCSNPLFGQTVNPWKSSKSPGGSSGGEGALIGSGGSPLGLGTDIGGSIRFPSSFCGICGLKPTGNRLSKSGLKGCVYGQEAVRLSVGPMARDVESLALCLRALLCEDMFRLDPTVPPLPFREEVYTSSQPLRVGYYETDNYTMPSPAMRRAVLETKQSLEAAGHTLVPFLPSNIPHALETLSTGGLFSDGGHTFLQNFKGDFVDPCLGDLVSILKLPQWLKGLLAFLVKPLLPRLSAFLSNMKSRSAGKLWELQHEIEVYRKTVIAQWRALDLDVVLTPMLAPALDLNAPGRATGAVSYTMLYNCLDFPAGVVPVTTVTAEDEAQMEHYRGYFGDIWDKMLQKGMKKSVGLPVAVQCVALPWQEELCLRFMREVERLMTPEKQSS

`COc1ccc(/C=C2\S/C(=N\c3ccc(OC)cc3)N(c3ccc(OC)cc3)C2=O)cc1` [Compound 5]: the half-maximal inhibitory concentration (IC50) in experiment [1] (setting [2]) came out at 0.148 µM. Moreover, in experiment [1] (setting [3]), the half-inhibitory concentration (IC50) stood at 0.148 µM. In addition, on FAAH (Table 4), the IC50 was found to be 20.4 µM. Further, in the experiment on BALB/c mice, the “anti-nociceptive effect in the hot plate test” value is “anti-nociceptive effect”; the “locomotion (RotaRod)” value is on record as “reduced locomotion”; the “time spent in the immobile state (catalepsy, bar test)” value was “increased time spent in the immobile state”; the “body temperature (tetrad test)” value was “decreased body temperature”.

With `COc1cc(/C=C2\S/C(=N\c3ccccc3)N(c3ccccc3)C2=O)ccc1O` [Compound 6], in experiment [1] (setting [2]), the IC50 is 0.225 µM. Further, the IC50 in experiment [1] (setting [3]) came out at 0.225 µM. In addition, the 50% inhibitory concentration (IC50) on FAAH (Table 4) was 26.9 µM. Further, in the experiment on BALB/c mice, the “anti-nociceptive effect in the hot plate test” value is “anti-nociceptive effect”, the “locomotion (RotaRod)” value is “reduced locomotion” and the “body temperature (tetrad test)” value was “decreased body temperature”.

On to `O=C1/C(=C/c2cc(Cl)c(O)c(Cl)c2)S/C(=N\c2ccccc2)N1Cc1ccco1` [Compound 23], for which the IC50 worked out at 0.99 µM in experiment [1] (setting [2]), 0.99 µM in experiment [1] (setting [3]), 60.3 µM on FAAH (Table 2) and 60.3 µM on FAAH (Table 4). Besides, the “anti-nociceptive effect in the hot plate test” value in the experiment with BALB/c mice was “anti-nociceptive effect”. The “time spent in the immobile state (catalepsy, bar test)” value with BALB/c mice is reported as “increased time spent in the immobile state”. Also, in the experiment on BALB/c mice, the “body temperature (tetrad test)” value was “decreased body temperature”.
